Reference: patent US20260232682A1, “GSPT1 DEGRADER COMPOUNDS” (Captor Therapeutics S.A., priority 2023, published 2026)

Experiments:
[1] = molecular target: T1, GSPT1-HiBiT protein in GSPT1-HiBiT HEK293 cells (Homo sapiens, UniProt P15170+Q96SW2); assay: GSPT1 degradation assay using HiBiT system (Nano-Glo HiBiT lytic assay); format: cell-based; conditions: 6 hours treatment; for DC50: read-out: HiBiT lytic assay Geomean absolute DC50
T1 construct: endogenous in cells; host or cells: HEK293 (CRISPR/Cas9 knock-in of HiBiT at the GSPT1 locus)
T1 sequence (P15170 whole entry): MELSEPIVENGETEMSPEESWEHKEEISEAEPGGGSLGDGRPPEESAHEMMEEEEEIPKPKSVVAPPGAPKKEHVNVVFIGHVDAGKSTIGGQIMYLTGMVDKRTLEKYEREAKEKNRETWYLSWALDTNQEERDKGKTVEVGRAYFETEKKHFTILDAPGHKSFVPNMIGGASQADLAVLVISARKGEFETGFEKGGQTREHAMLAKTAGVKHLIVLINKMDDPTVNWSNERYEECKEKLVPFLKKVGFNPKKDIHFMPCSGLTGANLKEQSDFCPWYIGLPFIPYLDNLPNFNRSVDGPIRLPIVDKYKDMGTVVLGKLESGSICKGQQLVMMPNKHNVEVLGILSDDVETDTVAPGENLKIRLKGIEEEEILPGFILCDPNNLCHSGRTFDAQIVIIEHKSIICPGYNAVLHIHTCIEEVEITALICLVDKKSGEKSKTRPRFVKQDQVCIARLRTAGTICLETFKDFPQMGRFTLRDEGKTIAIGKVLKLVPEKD
T1 sequence (Q96SW2 whole entry): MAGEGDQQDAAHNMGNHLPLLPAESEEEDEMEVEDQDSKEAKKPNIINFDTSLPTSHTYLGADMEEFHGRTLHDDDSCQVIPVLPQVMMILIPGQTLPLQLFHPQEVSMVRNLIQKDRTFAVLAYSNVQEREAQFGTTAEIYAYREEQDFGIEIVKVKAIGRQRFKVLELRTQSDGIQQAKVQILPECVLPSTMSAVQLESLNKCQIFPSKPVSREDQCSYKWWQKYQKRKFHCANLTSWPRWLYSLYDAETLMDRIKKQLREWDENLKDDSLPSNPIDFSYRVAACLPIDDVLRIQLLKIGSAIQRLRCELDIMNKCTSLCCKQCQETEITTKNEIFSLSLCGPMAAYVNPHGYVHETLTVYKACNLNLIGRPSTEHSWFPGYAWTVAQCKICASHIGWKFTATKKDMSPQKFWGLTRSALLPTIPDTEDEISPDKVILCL
T1 sequence (Q16531 whole entry partner): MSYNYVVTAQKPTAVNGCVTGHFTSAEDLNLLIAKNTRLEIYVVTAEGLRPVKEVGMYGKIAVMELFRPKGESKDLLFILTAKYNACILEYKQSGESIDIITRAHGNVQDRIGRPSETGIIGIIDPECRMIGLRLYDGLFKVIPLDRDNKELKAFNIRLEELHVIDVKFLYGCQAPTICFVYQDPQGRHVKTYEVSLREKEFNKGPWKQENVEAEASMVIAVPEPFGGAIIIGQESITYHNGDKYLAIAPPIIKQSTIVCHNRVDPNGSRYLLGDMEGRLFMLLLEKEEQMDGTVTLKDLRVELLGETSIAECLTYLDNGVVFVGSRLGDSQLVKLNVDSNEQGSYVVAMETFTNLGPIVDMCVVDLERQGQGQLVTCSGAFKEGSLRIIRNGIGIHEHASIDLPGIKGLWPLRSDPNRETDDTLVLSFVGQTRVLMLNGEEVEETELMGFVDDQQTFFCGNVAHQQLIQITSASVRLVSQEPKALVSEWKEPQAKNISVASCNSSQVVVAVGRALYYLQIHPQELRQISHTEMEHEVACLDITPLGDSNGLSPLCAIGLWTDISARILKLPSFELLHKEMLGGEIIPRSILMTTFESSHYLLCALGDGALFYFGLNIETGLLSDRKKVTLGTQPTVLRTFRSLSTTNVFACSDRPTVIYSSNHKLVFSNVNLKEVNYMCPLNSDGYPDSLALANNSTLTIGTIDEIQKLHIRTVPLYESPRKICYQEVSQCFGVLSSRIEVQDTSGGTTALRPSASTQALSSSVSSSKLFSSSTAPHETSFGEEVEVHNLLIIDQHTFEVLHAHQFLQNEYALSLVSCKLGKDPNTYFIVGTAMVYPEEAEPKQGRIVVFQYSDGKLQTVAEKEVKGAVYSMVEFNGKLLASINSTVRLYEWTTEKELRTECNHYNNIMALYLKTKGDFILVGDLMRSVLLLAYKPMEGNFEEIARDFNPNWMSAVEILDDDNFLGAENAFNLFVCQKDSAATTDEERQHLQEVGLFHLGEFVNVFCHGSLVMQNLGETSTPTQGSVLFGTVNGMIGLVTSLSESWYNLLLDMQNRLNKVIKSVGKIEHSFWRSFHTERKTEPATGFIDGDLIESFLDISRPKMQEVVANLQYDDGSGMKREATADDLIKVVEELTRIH
Excerpt: The effect of selected compounds of the invention on GSPT1 protein levels was investigated, using the GSPT1-HiBiT HEK293 cell line and the Nano-Glo HiBiT degradation assay protocol below.
GSPT1-HiBiT HEK293 cells were generated in-house using the HEK293 parental cells (ATCC, cat. no 70016364) and the CRISPR/Cas9 system. HEK293 cells were transformed with pSpCas9-BB-2A-Puro v2.0 plasmid carrying gRNA targeting the C-terminus of GSPT1 and ssODN template containing the HiBiT tag sequence with flanking homology sequences. Neon Transfection System (Thermo Fisher Scientific) was used for electroporation. HEK293 GSPT1-HiBiT cells were cultured with DMEM Glutamax (Gibco) supplemented with 10% heat inactivated FBS (Gibco). After transfection the culture medium was changed to DMEM Glutamax with 10% heat-inactivated FBS and 1% Penicillin-Streptomycin (Biowest) supplemented with Puromycin (2 μg/ml; Invivogen) for clonal selection. In order to isolate single cell clones for further validation and analysis, limiting dilution cloning in 96-well plates was performed. When the single clones reached confluency, HiBiT Lytic Assay (Promega) was performed in order to identify HiBiT positive clones. The clone selected for further studies was verified and validated using genotyping and HiBiT Blotting (Promega).
Cells were maintained in DMEM Glutamax medium, supplemented with 1% penicillin/streptomycin and 10% Fetal Bovine Serum (FBS) at 37° C., 5% CO2. Compounds were stored frozen as 20 mM DMSO stocks.
For the Nano-Glo HiBiT assay, cells were seeded onto 384-well white solid bottom plate at 2×10^3 cells/well in 40 μL using the Agilent BioTek MultiFlo FX Multimode Dispenser and incubated overnight. Following overnight incubation (37° C., 5% CO2) cells were treated with the test compounds and vehicle only (DMSO) control using the Echo 555 Liquid Handler. Twelve data-point compound titration curve with concentrations ranging from 10 μM to 0.03 nM was used. Final DMSO concentration was kept constant at 0.25% v/v across the assay plate. After 6 hours of incubation (37° C., 5% CO2), plates were removed from the incubator and let to equilibrate to RT. Luminescent signal detection was conducted using the Nano-Glo HiBiT Lytic Detection System (Promega, cat. nr N3050). Nano-Glo HiBiT Lytic Reagent was prepared freshly by diluting the LgBiT Protein (1:100 vol/vol) and the Nano-Glo HiBiT Lytic Substrate (1:50 vol/vol) in the relevant volume of the Nano-Glo HiBiT Lytic Buffer. 40 μL of the HiBiT Lytic Reagent was added per well, plates were shaken to facilitate lysis (350 rpm, 5 min, RT) and incubated in the dark for the following 10 min. Luminescence was read using the PHERAstar multimode plate reader (BMG LABTECH). The raw data (the relative luminescence unit values, RLU) were uploaded under the relevant protocol and analysed in CDDVault data management platform. Luminescence (RLU) values were normalized to the controls, and reported absolute DC50 values and Dmax values were calculated in CDDVault using non-linear regression and appropriate equations.

[2] = molecular target: T2, [IKZF2 ZF2]-[compound]-[CRBN/DDB1] ternary complex (Homo sapiens, UniProt Q96SW2+Q9UKS7); assay: AlphaLISA assay for off-target recruitment detection, IKZF2 ZF2; format: binding; conditions: 1 μM compound; normalized to Helios modulator; read-out: Normalized ternary complex response, IKZF2 ZF2
T2 construct: IKZF2 ZF2
T2 sequence (Q9UKS7 140-162 limits assumed): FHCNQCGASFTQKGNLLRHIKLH
T2 sequence (Q96SW2 whole entry): as the sequence (Q96SW2 whole entry) above
T2 sequence (Q16531 whole entry partner): as the sequence (Q16531 whole entry partner) above
Method in brief: (§1)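 Neo-substrate with 40 μg/ml donor beads and 200 nM 6×His-CRBN/DDB1 with 40 μg/ml anti-His acceptor beads were each prepared in PBS pH 7.4 with Tween-20 and 1 mM DTT, preincubated 30 min at RT, then mixed. Compounds at 2% DMSO were incubated 30 min at 25 °C, read at 680/615 nm, and normalised between DMSO background and reference glue maximum.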

[3] = molecular target: [GSPT1]-[compound of formula (I)]-[CRBN/DDB1] complex (Homo sapiens, UniProt P15170+Q96SW2); assay: AlphaLISA ternary complex formation assay (GSPT1); format: binding; conditions: 0.5 h; 1 μM compound; normalized to reference compound CC-885; read-out: Normalized AlphaLISA ternary complex average signal at 1 μM molecule
[GSPT1]-[compound of formula (I)]-[CRBN/DDB1] complex, sequence (P15170 whole entry): as the sequence (P15170 whole entry) above
[GSPT1]-[compound of formula (I)]-[CRBN/DDB1] complex, sequence (Q96SW2 whole entry): as the sequence (Q96SW2 whole entry) above
[GSPT1]-[compound of formula (I)]-[CRBN/DDB1] complex, sequence (Q16531 whole entry partner): as the sequence (Q16531 whole entry partner) above
Method in brief: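 Biotinylated GSPT1 on streptavidin donor beads and 6×His-CRBN/DDB1 on anti-His acceptor beads (each 200 nM before mixing) in HBS pH 7.4 with 0.1% Tween-20 and 1 mM DTT, 2% DMSO final, 30 min at 25 °C. AlphaLISA luminescence is normalized between DMSO background and the reference compound's maximum.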

[4] = molecular target: [CK1α]-[compound]-[CRBN/DDB1] ternary complex (Homo sapiens, UniProt P48729+Q96SW2); assay: AlphaLISA assay for off-target recruitment detection, CK1α; format: binding; conditions: 1 μM compound; normalized to FPFT-2216; read-out: Normalized ternary complex response, CK1α
[CK1α]-[compound]-[CRBN/DDB1] ternary complex, sequence (P48729 whole entry): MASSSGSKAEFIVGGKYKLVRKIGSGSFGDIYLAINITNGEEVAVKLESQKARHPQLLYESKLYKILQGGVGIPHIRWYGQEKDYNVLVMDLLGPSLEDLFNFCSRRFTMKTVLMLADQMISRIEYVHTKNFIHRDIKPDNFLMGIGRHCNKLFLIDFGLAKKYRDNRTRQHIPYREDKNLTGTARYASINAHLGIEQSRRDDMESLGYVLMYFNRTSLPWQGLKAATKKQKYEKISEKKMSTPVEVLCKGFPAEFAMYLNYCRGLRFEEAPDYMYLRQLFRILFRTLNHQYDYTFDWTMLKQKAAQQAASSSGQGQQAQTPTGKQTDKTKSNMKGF
[CK1α]-[compound]-[CRBN/DDB1] ternary complex, sequence (Q96SW2 whole entry): as the sequence (Q96SW2 whole entry) above
[CK1α]-[compound]-[CRBN/DDB1] ternary complex, sequence (Q16531 whole entry partner): as the sequence (Q16531 whole entry partner) above
Method in brief: as §1

Row | Structure (SMILES) | Dmax [1] | DC50 [1] | activation at 1 µM [2] | activation at 1 µM [3] | activation at 1 µM [4]
1 | [2H]C([2H])(OC(=O)Nc1cc(C(C)(C)C)no1)c1ccc2cc(C3CCC(=O)NC3=O)c(C)nc2c1 (stereo not shown) [Compound 82, (3-(2,6-dioxopiperidin-3-yl)-2-methylquinolin-7-yl)methyl-d2 (3-(tert-butyl)isoxazol-5-yl)carbamate] | ≥ 75% | < 10 nM | < 10% | > 50% | < 10%
2 | COc1cc(C)c(Cl)cc1NC(=O)OCc1ccc2cc(C3CCC(=O)NC3=O)c(C)nc2c1 (stereo not shown) [Compound 21, (3-(2,6-dioxopiperidin-3-yl)-2-methylquinolin-7-yl)methyl (5-chloro-2-methoxy-4-methylphenyl)carbamate] | ≥ 75% | 10 to 50 nM | < 10% | > 50% | < 10%
3 | Cc1ccc(NC(=O)OCc2ccc3cc(N4CCC(=O)NC4=O)c(C)nc3c2)cc1Cl [Compound 28, (3-(2,4-dioxotetrahydropyrimidin-1(2H)-yl)-2-methylquinolin-7-yl)methyl (3-chloro-4-methylphenyl)carbamate] | ≥ 75% | 10 to 50 nM | < 10% | 10 to 50% | < 10%
4 | Cc1ccc(NC(=O)OCc2ccc3c(C)c(C4CCC(=O)NC4=O)c(C)nc3c2)cc1Cl (stereo not shown) [Compound 44, (3-(2,6-dioxopiperidin-3-yl)-2,4-dimethylquinolin-7-yl)methyl (3-chloro-4-methylphenyl)carbamate] | ≥ 75% | < 10 nM | < 10% | 10 to 50% | < 10%
5 | Cc1nc2cc(COC(=O)Nc3ccc4c(c3)OCO4)ccc2cc1C1CCC(=O)NC1=O (stereo not shown) [Compound 14, (3-(2,6-dioxopiperidin-3-yl)-2-methylquinolin-7-yl)methyl benzo[d][1,3]dioxol-5-ylcarbamate] | ≥ 75% | 10 to 50 nM | < 10% | 10 to 50% | < 10%
6 | Cc1ccc(NC(=O)OCc2ccc3cc([C@@H]4CCC(=O)NC4=O)c(C)nc3c2)cc1Cl [Compound 38, (3-(2,6-dioxopiperidin-3-yl)-2-methylquinolin-7-yl)methyl (3-chloro-4-methylphenyl)carbamate] | ≥ 75% | 50 to 100 nM | < 10% | < 10% | < 10%
7 | COc1ccc(NC(=O)OCc2ccc3cc(C4CCC(=O)NC4=O)c(C)nc3c2)nn1 (stereo not shown) [Compound 45, (3-(2,6-dioxopiperidin-3-yl)-2-methylquinolin-7-yl)methyl (6-methoxypyridazin-3-yl)carbamate] | ≥ 75% | 10 to 50 nM | < 10% | 10 to 50% | < 10%
8 | Cc1nc2cc(COC(=O)NC3CCC(C(C)(C)C)CC3)ccc2cc1C1CCC(=O)NC1=O (stereo not shown) [Compound 55, (3-(2,6-dioxopiperidin-3-yl)-2-methylquinolin-7-yl)methyl (4-(tert-butyl)cyclohexyl)carbamate] | ≥ 75% | 10 to 50 nM | < 10% | > 50% | < 10%
9 | Cc1ccc(NC(=O)OCc2ccc3cc(C4(F)CCC(=O)NC4=O)c(C)nc3c2)cc1Cl (stereo not shown) [Compound 74, (3-(3-fluoro-2,6-dioxopiperidin-3-yl)-2-methylquinolin-7-yl)methyl (3-chloro-4-methylphenyl)carbamate] | ≥ 75% | > 100 nM | < 10% | 10 to 50% | < 10%
10 | Cc1nc2cc(COC(=O)Nc3cc(C(F)(F)F)n[nH]3)ccc2cc1C1CCC(=O)NC1=O (stereo not shown) [Compound 69, (3-(2,6-dioxopiperidin-3-yl)-2-methylquinolin-7-yl)methyl (3-(trifluoromethyl)-1H-pyrazol-5-yl)carbamate] | ≥ 75% | 10 to 50 nM | < 10% | > 50% | < 10%

Now from value to compound:

Row | Dmax [1] | DC50 [1] | activation at 1 µM [2] | activation at 1 µM [3] | activation at 1 µM [4] | Structure (SMILES)
11 | ≥ 75% | < 10 nM | < 10% | 10 to 50% | < 10% | Cc1nc2cc(COC(=O)Nc3ccc(C(C)(C)C)c(Cl)c3)ccc2cc1C1CCC(=O)NC1=O (stereo not shown) [Compound 10, (3-(2,6-dioxopiperidin-3-yl)-2-methylquinolin-7-yl)methyl (4-(tert-butyl)-3-chlorophenyl)carbamate]
12 | ≥ 75% | < 10 nM | < 10% | > 50% | < 10% | Cc1ncc(NC(=O)OCc2ccc3cc(C4CCC(=O)NC4=O)c(C)nc3c2)cc1Cl (stereo not shown) [Compound 58, (3-(2,6-dioxopiperidin-3-yl)-2-methylquinolin-7-yl)methyl (5-chloro-6-methylpyridin-3-yl)carbamate]
13 | ≥ 75% | < 10 nM | < 10% | > 50% | < 10% | Cc1nc2cc(COC(=O)Nc3cc(C(C)(C)C)no3)ccc2cc1C1CCC(=O)NC1=O (stereo not shown) [Compound 30, (3-(2,6-dioxopiperidin-3-yl)-2-methylquinolin-7-yl)methyl (3-(tert-butyl)isoxazol-5-yl)carbamate]
14 | ≥ 75% | 10 to 50 nM | < 10% | > 50% | < 10% | Cc1ccc(NC(=O)OCc2ccc3cc(C4CCC(=O)NC4=O)c(C)nc3c2)cc1Cl (stereo not shown) [Compound 4, (3-(2,6-dioxopiperidin-3-yl)-2-methylquinolin-7-yl)methyl (3-chloro-4-methylphenyl)carbamate]
15 | ≥ 75% | 10 to 50 nM | < 10% | 10 to 50% | < 10% | Cc1nc2cc(COC(=O)Nc3ccc(Cl)c(Cl)c3)ccc2cc1C1CCC(=O)NC1=O (stereo not shown) [Compound 12, (3-(2,6-dioxopiperidin-3-yl)-2-methylquinolin-7-yl)methyl (3,4-dichlorophenyl)carbamate]
16 | ≥ 75% | 10 to 50 nM | < 10% | > 50% | < 10% | Cc1ccc(NC(=O)OCc2ccc3cc(C4CCC(=O)NC4=O)c(C)nc3c2F)cc1Cl (stereo not shown) [Compound 50, (3-(2,6-dioxopiperidin-3-yl)-8-fluoro-2-methylquinolin-7-yl)methyl (3-chloro-4-methylphenyl)carbamate]
17 | ≥ 75% | 10 to 50 nM | 25 to 50% | > 50% | 10 to 25% | Cc1nc2ccc(CNC(=O)Nc3cc(C(C)(C)C)no3)cc2cc1N1CCC(=O)NC1=O [Compound 67, 1-(3-(tert-butyl)isoxazol-5-yl)-3-((3-(2,4-dioxotetrahydropyrimidin-1(2H)-yl)-2-methylquinolin-6-yl)methyl)urea]
